Laboratory results from article PMC12136037, “Type II kinase inhibitors that target Parkinson’s disease–associated LRRK2” (Science Advances, 2025).
Read-outs that look alike come from different tables or passages of the source.

Experiments:
Assay in all cases: DSF 100 kinase selectivity screen;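 also: compound tested at 20 µM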
Assay type in all cases: binding
[1] = target: T1, ~100 representative kinases (Homo sapiens, UniProt O00444); conditions: protein PLK4; average of three replicates
T1 construct: Recombinant protein kinase domains with a concentration of 2 μM
T1 sequence (O00444 1-970): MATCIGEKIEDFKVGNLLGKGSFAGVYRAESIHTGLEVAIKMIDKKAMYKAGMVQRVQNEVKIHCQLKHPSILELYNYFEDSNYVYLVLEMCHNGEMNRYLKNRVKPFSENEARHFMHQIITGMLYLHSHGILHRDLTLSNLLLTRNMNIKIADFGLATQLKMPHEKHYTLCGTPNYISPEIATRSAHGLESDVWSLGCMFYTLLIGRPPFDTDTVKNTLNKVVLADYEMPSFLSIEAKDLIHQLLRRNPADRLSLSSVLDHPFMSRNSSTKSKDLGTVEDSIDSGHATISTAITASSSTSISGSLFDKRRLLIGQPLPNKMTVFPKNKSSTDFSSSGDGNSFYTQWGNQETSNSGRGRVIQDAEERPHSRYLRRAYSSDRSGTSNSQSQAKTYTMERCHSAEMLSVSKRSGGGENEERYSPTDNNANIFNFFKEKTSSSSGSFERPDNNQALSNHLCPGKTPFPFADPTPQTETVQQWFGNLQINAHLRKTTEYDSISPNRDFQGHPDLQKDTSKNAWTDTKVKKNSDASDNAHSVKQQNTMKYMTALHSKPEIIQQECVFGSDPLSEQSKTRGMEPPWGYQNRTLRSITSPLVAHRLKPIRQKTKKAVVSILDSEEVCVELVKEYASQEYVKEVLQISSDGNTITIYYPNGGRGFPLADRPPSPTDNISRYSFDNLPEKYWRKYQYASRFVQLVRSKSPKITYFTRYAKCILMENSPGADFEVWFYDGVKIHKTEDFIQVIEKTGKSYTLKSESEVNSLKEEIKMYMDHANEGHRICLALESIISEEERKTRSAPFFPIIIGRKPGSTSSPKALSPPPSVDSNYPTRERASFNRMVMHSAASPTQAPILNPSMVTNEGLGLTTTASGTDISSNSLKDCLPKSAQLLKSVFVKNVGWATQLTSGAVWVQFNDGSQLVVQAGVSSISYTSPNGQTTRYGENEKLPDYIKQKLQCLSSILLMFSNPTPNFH
Procedure: (§1) Recombinant protein kinase domains with a concentration of 2 μM were mixed with a 20 μM compound solution in dimethyl sulfoxide (DMSO), 20 mM Hepes (pH 7.5), and 500 mM NaCl. SYPRO Orange (5000×, Invitrogen) was added as a fluorescence probe (1μl/ml). Subsequently, temperature-dependent protein unfolding profiles were measured using the QuantStudio 5 realtime PCR machine (Thermo Fisher Scientific, Waltham, MA, USA). […] The temperature was raised with a step rate of 3°C/min. […] Differences in melting temperature are given as ΔTm values in degrees Celsius. […]

[2] = target: T2, ~100 representative kinases (Homo sapiens, UniProt O15075); conditions: Protein DCAMKL1; average of three replicates
T2 construct: Recombinant protein kinase domains with a concentration of 2 μM
T2 sequence (O15075 whole entry, the tested form may be a part): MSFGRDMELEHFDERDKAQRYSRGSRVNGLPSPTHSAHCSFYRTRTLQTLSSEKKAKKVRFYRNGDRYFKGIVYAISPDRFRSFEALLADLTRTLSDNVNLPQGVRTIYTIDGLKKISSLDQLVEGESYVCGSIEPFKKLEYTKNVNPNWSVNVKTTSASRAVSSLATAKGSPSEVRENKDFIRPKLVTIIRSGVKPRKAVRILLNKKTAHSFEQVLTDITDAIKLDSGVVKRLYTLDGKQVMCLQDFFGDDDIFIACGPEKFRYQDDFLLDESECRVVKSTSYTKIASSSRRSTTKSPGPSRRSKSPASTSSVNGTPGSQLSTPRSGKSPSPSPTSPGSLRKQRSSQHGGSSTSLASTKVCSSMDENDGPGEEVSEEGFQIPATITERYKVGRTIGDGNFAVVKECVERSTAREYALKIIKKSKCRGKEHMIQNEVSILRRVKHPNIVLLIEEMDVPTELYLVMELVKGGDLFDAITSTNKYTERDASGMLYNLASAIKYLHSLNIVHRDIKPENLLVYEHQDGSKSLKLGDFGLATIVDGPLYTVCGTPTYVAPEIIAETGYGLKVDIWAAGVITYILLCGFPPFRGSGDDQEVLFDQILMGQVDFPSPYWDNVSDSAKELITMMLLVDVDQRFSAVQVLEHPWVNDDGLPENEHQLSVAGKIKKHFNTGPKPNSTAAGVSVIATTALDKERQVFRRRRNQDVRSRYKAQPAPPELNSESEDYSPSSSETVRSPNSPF
Procedure: as §1

[3] = target: T3, ~100 representative kinases (Homo sapiens, UniProt P00519)
T3 construct: Recombinant protein kinase domains with a concentration of 2 μM
T3 sequence (P00519 whole entry, the tested form may be a part): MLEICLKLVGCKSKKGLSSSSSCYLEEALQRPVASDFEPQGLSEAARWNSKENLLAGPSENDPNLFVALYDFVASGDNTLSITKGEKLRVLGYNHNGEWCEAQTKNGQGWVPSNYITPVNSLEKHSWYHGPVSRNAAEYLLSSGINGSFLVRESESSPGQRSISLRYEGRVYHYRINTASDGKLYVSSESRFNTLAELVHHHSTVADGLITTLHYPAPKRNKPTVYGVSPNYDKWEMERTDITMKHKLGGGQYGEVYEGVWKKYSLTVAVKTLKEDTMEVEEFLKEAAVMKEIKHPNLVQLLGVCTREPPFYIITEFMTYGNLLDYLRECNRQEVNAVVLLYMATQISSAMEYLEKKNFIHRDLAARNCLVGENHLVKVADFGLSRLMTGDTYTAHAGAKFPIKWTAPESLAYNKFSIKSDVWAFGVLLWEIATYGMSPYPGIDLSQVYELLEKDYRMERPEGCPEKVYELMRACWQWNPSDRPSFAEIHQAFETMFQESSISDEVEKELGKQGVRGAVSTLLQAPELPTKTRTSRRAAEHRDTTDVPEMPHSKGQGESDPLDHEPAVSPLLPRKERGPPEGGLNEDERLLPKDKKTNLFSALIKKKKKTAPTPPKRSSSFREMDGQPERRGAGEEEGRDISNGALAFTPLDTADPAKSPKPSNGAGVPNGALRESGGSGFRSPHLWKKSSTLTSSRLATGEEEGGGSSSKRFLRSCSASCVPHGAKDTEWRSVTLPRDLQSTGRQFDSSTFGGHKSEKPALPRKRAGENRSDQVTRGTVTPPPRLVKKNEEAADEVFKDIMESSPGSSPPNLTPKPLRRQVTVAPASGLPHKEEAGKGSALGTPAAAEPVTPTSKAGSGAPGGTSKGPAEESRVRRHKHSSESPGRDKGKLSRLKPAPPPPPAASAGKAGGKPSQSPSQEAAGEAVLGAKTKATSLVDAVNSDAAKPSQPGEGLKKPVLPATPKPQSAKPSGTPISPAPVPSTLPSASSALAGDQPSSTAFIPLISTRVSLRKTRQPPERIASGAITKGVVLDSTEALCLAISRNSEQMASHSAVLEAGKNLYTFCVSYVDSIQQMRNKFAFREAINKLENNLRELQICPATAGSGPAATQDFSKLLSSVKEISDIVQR
Procedure: as §1

[4] = target: T4, ~100 representative kinases (Homo sapiens, UniProt P45985); conditions: protein MAP2K4; average of three replicates
T4 construct: Recombinant protein kinase domains with a concentration of 2 μM
T4 sequence (P45985 1-399): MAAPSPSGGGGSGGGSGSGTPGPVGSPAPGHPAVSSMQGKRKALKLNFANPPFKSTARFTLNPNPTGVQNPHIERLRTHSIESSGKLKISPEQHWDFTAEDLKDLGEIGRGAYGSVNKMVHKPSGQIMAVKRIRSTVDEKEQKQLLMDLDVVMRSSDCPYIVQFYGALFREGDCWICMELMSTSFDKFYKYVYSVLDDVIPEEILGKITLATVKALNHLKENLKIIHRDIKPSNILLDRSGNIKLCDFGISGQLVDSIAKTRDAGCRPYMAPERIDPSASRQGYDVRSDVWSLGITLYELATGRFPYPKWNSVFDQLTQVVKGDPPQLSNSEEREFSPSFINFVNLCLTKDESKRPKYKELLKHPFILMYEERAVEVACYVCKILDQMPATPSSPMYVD
Procedure: as §1

[5] = target: T5, ~100 representative kinases (Homo sapiens, UniProt P49761); conditions: Protein CLK3; average of three replicates
T5 construct: Recombinant protein kinase domains with a concentration of 2 μM
T5 sequence (P49761 whole entry, the tested form may be a part): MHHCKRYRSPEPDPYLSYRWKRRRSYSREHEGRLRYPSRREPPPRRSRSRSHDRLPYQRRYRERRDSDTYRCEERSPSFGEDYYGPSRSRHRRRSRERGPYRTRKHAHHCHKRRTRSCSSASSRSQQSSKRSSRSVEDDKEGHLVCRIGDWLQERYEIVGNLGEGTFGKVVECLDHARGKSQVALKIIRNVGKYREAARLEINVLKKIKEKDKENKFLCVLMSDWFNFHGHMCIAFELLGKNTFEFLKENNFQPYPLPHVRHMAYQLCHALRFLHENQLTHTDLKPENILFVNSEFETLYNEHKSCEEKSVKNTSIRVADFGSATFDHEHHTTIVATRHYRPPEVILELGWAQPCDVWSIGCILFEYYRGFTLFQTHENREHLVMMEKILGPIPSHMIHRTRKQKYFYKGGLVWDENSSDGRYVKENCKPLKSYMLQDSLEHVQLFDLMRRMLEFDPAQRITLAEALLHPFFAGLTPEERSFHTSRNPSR
Procedure: as §1

[6] = target: T6, ~100 representative kinases (Homo sapiens, UniProt Q86V86); conditions: protein PIM3; average of three replicates
T6 construct: Recombinant protein kinase domains with a concentration of 2 μM
Procedure: as §1

[7] = target: T7, ~100 representative kinases (Homo sapiens, UniProt Q96L34); conditions: protein MARK4; average of three replicates
T7 construct: Recombinant protein kinase domains with a concentration of 2 μM
T7 sequence (Q96L34 1-752): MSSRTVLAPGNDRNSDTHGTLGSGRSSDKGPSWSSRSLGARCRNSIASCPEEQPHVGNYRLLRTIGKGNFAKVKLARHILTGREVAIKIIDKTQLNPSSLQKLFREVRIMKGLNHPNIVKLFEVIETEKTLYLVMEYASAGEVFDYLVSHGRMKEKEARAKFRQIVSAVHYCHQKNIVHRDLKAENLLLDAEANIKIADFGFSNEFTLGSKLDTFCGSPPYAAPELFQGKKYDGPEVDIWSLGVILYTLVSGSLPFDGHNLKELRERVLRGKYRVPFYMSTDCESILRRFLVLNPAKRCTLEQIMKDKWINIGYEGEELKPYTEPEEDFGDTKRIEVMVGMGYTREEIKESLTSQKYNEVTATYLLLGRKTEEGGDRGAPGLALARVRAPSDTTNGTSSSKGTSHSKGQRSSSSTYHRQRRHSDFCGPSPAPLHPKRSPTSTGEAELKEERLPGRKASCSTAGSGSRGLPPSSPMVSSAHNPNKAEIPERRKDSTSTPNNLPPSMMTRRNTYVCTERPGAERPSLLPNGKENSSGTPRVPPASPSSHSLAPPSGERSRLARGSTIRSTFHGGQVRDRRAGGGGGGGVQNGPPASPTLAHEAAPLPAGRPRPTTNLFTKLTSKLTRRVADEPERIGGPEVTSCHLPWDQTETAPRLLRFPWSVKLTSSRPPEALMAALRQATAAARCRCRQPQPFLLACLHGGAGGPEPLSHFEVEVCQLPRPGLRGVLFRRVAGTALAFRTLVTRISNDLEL
Procedure: as §1

[8] = Protein ABL1, average of three replicates

Structure (SMILES)	dTm [1]	dTm [2]	dTm [3, 8]	dTm [4]	dTm [5]	dTm [6]	dTm [7]	dTm [3]
CC(C)(C)c1cccc(NC(=O)C2(C(=O)Nc3cccc(-c4c[nH]c5ncnc(N6CCOCC6)c45)c3)CC2)c1 [Compound 22]	9.02 K	3.75 K	2.30 K	5.69 K	4.17 K	-1.29 K	4.58 K	
O=C(Nc1cccc(-c2c[nH]c3ncnc(N4CCOCC4)c23)c1)C1(C(=O)Nc2ccc(F)cc2F)CC1 [Compound 23]	7.20 K	-0.73 K	1.35 K	5.20 K	1.58 K	-0.33 K	2.83 K	
Cc1cc(F)ccc1NC(=O)C1(C(=O)Nc2cccc(-c3c[nH]c4ncnc(N5CCOCC5)c34)c2)CC1 [Compound 24]	7.17 K	-1.61 K	1.15 K	5.80 K	0.69 K	0.00331 K	2.55 K	
O=C(Nc1cccc(-c2c[nH]c3ncnc(N4CCOCC4)c23)c1)C1(C(=O)Nc2cc(Br)c(F)cc2F)CC1 [Compound 25]	0.00 K	3.61 K	1.76 K	5.47 K	2.08 K	-0.17 K	-6.37 K	
O=C(Nc1cccc(-c2c[nH]c3ncnc(N4CCOCC4)c23)c1)C1(C(=O)Nc2ccc(F)c(Br)c2F)CC1 [Compound 26]	5.97 K	3.55 K	1.83 K	5.24 K	3.24 K	0.88 K	1.86 K	
O=C(Nc1cc(F)cc(Br)c1)C1(C(=O)Nc2cccc(-c3c[nH]c4ncnc(N5CCOCC5)c34)c2)CC1 [Compound 27]	0.00 K	4.07 K	1.02 K	5.62 K	2.41 K	-0.05 K	1.77 K	
CC(C)(C)c1cc(NC(=O)Nc2cccc(-c3c[nH]c4ncnc(N5CCOCC5)c34)c2)n(-c2ccc3ncccc3c2)n1 [Compound 28]	3.84 K	3.53 K	7.77 K	6.08 K	16.34 K	4.96 K	4.38 K	
Cc1ccc(-n2nc(C(C)(C)C)cc2NC(=O)Nc2cccc(-c3c[nH]c4ncnc(N5CCOCC5)c34)c2)cc1 [Compound 29]	4.74 K	2.98 K	10.07 K	5.30 K	14.57 K	0.33 K	3.91 K	
Cc1ccc(-n2nc(C(C)(C)C)cc2NC(=O)Nc2cccc(-c3c[nH]c4nc(Cl)nc(N5CCOCC5)c34)c2)cc1 [Compound 30]	0.26 K	2.36 K	2.41 K	1.92 K	3.71 K	-1.11 K	-1.19 K	
CC(=O)N1CCN(c2nc(Cl)nc3[nH]cc(-c4cccc(NC(=O)Nc5cc(C(C)(C)C)nn5-c5ccc(C)cc5)c4)c23)CC1 [Compound 31]	0.19 K	2.11 K	2.73 K	1.72 K	3.34 K	0.67 K	-0.53 K	
CCSc1nc(NC)c2c(-c3cccc(NC(=O)Nc4cc(C(C)(C)C)nn4-c4ccc(C)cc4)c3)c[nH]c2n1 [Compound 32]	0.48 K	0.67 K	2.07 K	0.66 K	0.50 K	2.14 K	0.25 K	
COc1cc(C(=O)N2CCOCC2)c(F)cc1Nc1nc(N(C)C)c2c(Cl)c[nH]c2n1 [Compound 36]	10.15 K	2.05 K	1.16 K	10.31 K	2.75 K	-0.33 K	-0.63 K	
COc1cc(S(C)(=O)=O)ccc1Nc1nc(N(C)C)c2c(Cl)c[nH]c2n1 [Compound 37]	4.57 K	-0.34 K	0.38 K	4.74 K	1.12 K	0.48 K	0.42 K	
COc1cc2c(Oc3ccc(NC(=O)C4(C(=O)Nc5ccc(F)cc5)CC4)cc3F)ccnc2cc1OCCCN1CCOCC1 [Foretinib, reference compound]	16.61 K	0.55 K	13.44 K	2.73 K	3.35 K	-0.88 K	1.64 K	
CCNc1nc(Nc2cc(F)c(C(=O)N3CCOCC3)cc2OC)ncc1C(F)(F)F [GNE-7915]	1.52 K	2.14 K	0.74 K	1.26 K	1.84 K	0.92 K	-0.13 K	
Cc1ccc(C(=O)Nc2ccc(CN3CCN(C)CC3)c(C(F)(F)F)c2)cc1C#Cc1cnc2[nH]ncc2c1 [GZD-824, reference compound]	2.97 K	0.30 K		1.62 K	4.75 K	0.45 K	1.02 K	30.43 K
C[C@@H]1CN(c2cc(-c3n[nH]c4ccc(OC5(C)CC5)cc34)ncn2)C[C@H](C)O1 [MLi2]	3.07 K	0.51 K	0.50 K	0.87 K	3.51 K	0.23 K	-0.55 K	
Cn1cc(-c2c[nH]c3ncnc(N4CCOCC4)c23)cc1C#N [PFE-360]	4.43 K	0.62 K	3.25 K	1.90 K	5.46 K	0.58 K	3.49 K	
